Test results: patent US20240199688A1, “METHODS FOR REDUCING LIPASE ACTIVITY” (Regeneron Pharmaceuticals, Inc., priority 2022, published 2024)

System: polysorbate degrading activity
Experiment: Reduction of polysorbate degrading activity by lipase inhibitors
Type: biochemical, CHO
[1] = 0.001 mM lipase inhibitor, relative to control without inhibitor

Row | Molecule | Percent reduction in polysorbate 20 degradation [1] | Percent reduction in polysorbate 20 degradation (0.01 mM lipase inhibitor) | Percent reduction in polysorbate 20 degradation (0.1 mM lipase inhibitor)
1 | CCCCOc1ccccc1B(O)O [2-Butoxyphenyl boronic acid, 2-butoxyphenylboronic acid] | 0% | 28% | 0%
2 | CCCCCCCCCCC[C@@H](C[C@@H]1OC(=O)[C@H]1CCCCCC)OC(=O)[C@H](CC(C)C)NC=O [Orlistat, orlistat] | 0% | 27.8%^ | 67%
3 | O=C(Nc1cccc(-c2ccccc2)c1)OC1CCCCC1 [URB602, [1-1′-biphenyl]-3-t1-carbamicacid cyclohexyl ester] | 0% | 20% | 0%
4 | diethylumbelliferyl phosphate | 48% | 100% | >95%
